Patent US20240158359A1, “HYDROLYSIS-RESISTANT ESTERS FOR DRUG AND IMAGING AGENT DELIVERY” (The Board of Trustees of the University of lllinois, priority 2022, published 2024)

What was measured:
[1] = 5 μM, 50 equiv analyte, 37° C., 30 min
Experimental: For instance, transition metals like Cu(II) can facilitate ester hydrolysis via Lewis acid-mediated ester activation. Additionally, various reactive oxygen and nitrogen that can interact with the ester bond were also tested. Lastly, we also examined reactive sulfur species, which are known to reduce aryl nitro groups.
Analyte Selectivity Assay for BL660-NTR. […] Light was collected within 15 min after mixing, and the signal enhancement was determined relative to control wells not treated with analyte. The total volume of each well was 100 μL [PBS (pH 7.4) with 0.5% DMSO]. Metal ion solutions were prepared by dissolving in MilliQ H2O before use. Superoxide anion was added as a solution of potassium superoxide in DMSO. Hydroxide radical was generated according to the previously reported literature. Similarly, peroxynitrite was prepared according to the reported literature. NO was generated in situ from a solution of DEA-NONOate in degassed PBS buffer. Glutathione reduced form was maintained at the final concentration of 5 mM in the reaction mixture. H2S was generated just before use according to the reported literature. NTR was used one unit per well. All other analytes were prepared by dilution or dissolution from commercially available sources.

A549 cells [2] = experiment: MTT cytotoxicity assay of BL660-NTR; format: cell-based; details: 0 to 20 μM, up to 3 hours
Experimental: Prior to testing BL660-NTR in vivo, we assessed potential cytotoxicity by treating A549 cells with BL660-NTR across a concentration range of 0 to 20 μM for up to 3 hours.
MTT Cytotoxicity Assay. 24-well plates were seeded with 180,000 cells per well (500 μL of 360,000 cells/mL) and incubated at 37° C. with 5% CO2 for 24 h (˜70% confluent). Media was removed and fresh RPMI 1640 media with 10% FBS containing 0, 5, 10 or 20 μM BL660-NTR (1% DMSO final v/v) was added. The media was removed after 1 and 3 h and replaced with 500 μL of a 20:1 mixture of FBS-free RPMI 1640 and (3-(4,5-dimethylthiazol-2-yl)-2,5-diphenyl-tetrazolium bromide (MTT, 5 mg/mL stock in PBS). The cells were incubated for 2 h under the same conditions and then the medium was removed and replaced with DMSO (500 μL/well). The absorbance of each well was recorded after a 1:5 dilution in DMSO at 555 nm on a microplate reader. Viability was calculated by the absorbance relative to the vehicle control. Values are reported as the mean±standard deviation (n=3).

A549-Luc2 tumors = experiment: BL imaging of tumor hypoxia in a lung cancer model; format: in vivo, NU/J mice; details: for BL signal in the tumors (in words): 5 to 75 min after retroorbital injection; for BL signal in the tumors (in words) / total luminescent count in tumors after 15 mins: 2.2 μmol/kg; for total luminescent count in tumors after 15 mins: NU/J mice with A549-Luc2 tumors
Experimental: NU/J mice (male, ˜5-weeks old) were inoculated with A549-Luc2 lung cancer cells (5×10^6) in both flanks. Testing of BL660-NTR commenced after tumors had grown to a volume of ˜300 mm^3 (˜4 weeks). First, we performed imaging using BL660-NTR, which was administered systemically via retroorbital injection (ROI) (FIG. 5a (upper horizontal row of points) and FIG. 14). ROIs were drawn around each tumor and the luminescent count was summed for each animal. […] The BL intensity appears to decrease slightly after 15 mins and levels off until the end of the experiment (75 mins) (FIG. 5c).
Next, to distinguish between NTR activation and off-target ester hydrolysis, we employed Compound (4) as a control reagent, which only differs in that the nitro trigger is absent (FIG. 1a). After approximately 20 hours, the same animals were treated with Compound (4) and imaged (FIG. 5b and FIG. 15). This delay was to ensure the probe had fully cleared from the first experiment. […] The total luminescent count after 15 mins for Compound 4 was only 4.0±0.7×10^3; whereas the corresponding readout was 16.6±2.5×10^3 for BL660-NTR. This represents a […] difference, indicating successful detection of tumor hypoxia (FIG. 5d).
NU/J mice bearing A549-Luc2 tumors were anesthetized using isoflurane (1-3% for maintenance; up to 5% for induction) in oxygen from a precision vaporizer. After testing to ensure animals are fully under anesthesia, an initial background scan is recorded. BL660-NTR or compound 4 formulated in 3:7 v/v DMSO:PBS. The solution was filtered through a […] sterile filter immediately prior to use. The typical injection volume is ˜100 μM at a dose of 2.2 μmol/kg. The solution was then administered via retroorbital injection. Images were captured using the IVIS® imaging system at 5, 15, 30, 45, 60, and 75 minutes after injection. Bioluminescence light was collected in open mode (no filters were applied). Regions of interest (“ROIs”) were drawn around each tumor and summed for each animal. The signal intensity was quantified using the Living Image Analysis Software and is represented in FIGS. 5c and 5d.
Generation of a Subcutaneous Lung Cancer Model: A549 cells were treated with vehicle (media only) or 50 μM DETA NONOate in media for 10 days. Cells were washed with PBS, resuspended in serum-free media (Hams F-12K), and mixed 1:1 with Geltrex (v/v) (to a final concentration of 5×10^7 cells/mL). Tumors were generated by subcutaneously injecting 100 μL of these cell solutions into the flanks of 4-week-old Nu/J mice (The Jackson Laboratory stock #: 002019).
BL660-NTR was dissolved in DMSO and diluted with PBS (3:7 v/v DMSO:PBS). The solution was filtered through a […] sterile filter immediately prior to use. The typical injection volume is ˜100 μM at a dose of 2.2 μmol/kg.
Compound 4 was dissolved in DMSO and diluted with PBS (3:7 v/v DMSO:PBS). The solution was filtered through a […] sterile filter immediately prior to use. The typical injection volume is ˜100 μM at a dose of 2.2 μmol/kg.

A549 cells [3] = experiment: Detection of NTR activity in A549 lung cancer cells cultured in hypoxia or normoxia, lysate BL imaging; format: cell-based
Experimental: Next, we performed a cell imaging study to measure hypoxia within a living system. Specifically, A549 cells (not expressing Luc) were cultured in an atmosphere consisting of 1% or 20% oxygen for 2 days to mimic hypoxic conditions (1%) or normoxic (20%), respectively. Because aryl nitro reduction mediated by mammalian NTRs can be inhibited by molecular oxygen, we expect there to be greater probe activation under oxygen-deficient conditions. After incubating with BL660-NTR for 60 minutes, the cells were washed with fresh PBS, detached, pelleted, and lysed via sonication. The lysates were then transferred to 24-well plates, treated with luciferase and imaged immediately using the IVIS imaging system. […] This represents a significant 4.5-fold difference in BL intensity.
A549 cells were seeded in T75 culture flasks and incubated in 1% or 20% oxygen atmosphere for 48 hours. A solution of BL660-NTR in DMSO (2 mM, 50 μL) was quickly added into each flask such that the final concentration of the probe is 10 μM and 0.5% DMSO. The cells were incubated with the probe for 60 minutes (under the respective culture conditions), washed with fresh PBS, and detached from the culture flasks. The cells were then transferred to a 15 mL centrifuge tube and pelleted at 1000 rpm for 5 min at room temp. The cells (4.25×10^6 cells/mL) were then resuspended in PBS along with 10% protease inhibitor solution (1 protease inhibitor mini tablet per 10 mL PBS, Pierce, Thermo Fisher Scientific) and sonicated on ice for 2.5 minutes (pulse 01, 01, 40%). The cell debris was removed via centrifugation at 4° C. The cell lysates were further diluted 2.5-fold by PBS and 475 μL were transferred into 24-well plates (n=4 for each condition), treated with luciferase (25 μL, 0.25 mg/mL), and imaged immediately using the IVIS imaging system. Bioluminescence light was collected in open mode (no filters were applied). ROIs were drawn around each well. The signal intensity was quantified using the Living Image Analysis Software.

NTR = NTR (Escherichia coli, UniProt P38489)
NTR, sequence (P38489 whole entry): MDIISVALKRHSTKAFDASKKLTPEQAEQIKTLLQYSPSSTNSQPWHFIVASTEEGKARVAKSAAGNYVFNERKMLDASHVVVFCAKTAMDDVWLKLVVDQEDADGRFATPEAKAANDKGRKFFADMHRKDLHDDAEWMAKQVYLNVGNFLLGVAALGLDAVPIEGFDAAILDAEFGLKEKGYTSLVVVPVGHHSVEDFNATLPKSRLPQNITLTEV
Experimental: Dose-dependence Activation of BL660-NTR (FIG. 4a) by NTR: The response of BL660-NTR (5 μM) against different concentrations of NTR was measured in a 96-well culture plate and was monitored using the IVIS imaging system. BL660-NTR was incubated with either 0.01 U or 0.1 U NTR at 37° C. for 15 min before the wells were treated with ATP-MgSO4 and luciferase to initiation bioluminescence production. Light was collected immediately after mixing, and the signal enhancement was determined relative to control wells not treated with enzyme. The total volume of each well was 100 μL (PBS (pH 7.4) with 0.5% DMSO). All data is reported as the mean±standard deviation (n=5).

[4] = test system: lipase, human carboxyesterase-2, monoacylglycerol lipase, fatty acid amide hydrolase, and aldehyde dehydrogenase 1A1; experiment: Enzyme selectivity assay for Compound 4 against panel of ester-cleaving enzymes; format: in vitro ADME; details: 5 μM, 10 mU of each enzyme (ALDH 1A1 100 nM), 37° C.
Experimental: (§1) Following this set of experiments, we subjected Compound (4) to acidic (pH 5) and alkaline (pH 9) conditions to account for the various pH gradients in the body. For these experiments we used the Britton-Robinson buffer system. […] These include lipase, human carboxyesterase-2, monoacylglycerol lipase, fatty acid amide hydrolase, and aldehyde dehydrogenase 1A1.
Enzyme Selectivity Assay for Compound 4. […] Compound 4 was incubated with 10 mU of each enzyme at 37° C. for 30 min before ATP-MgSO4 and luciferase were added to initiate bioluminescence production. […] ALDH 1A1 was used at a final concentration of 100 nM.

4T1-Luc cells = experiment: Ester stability in live 4T1-Luc cells, BL imaging; format: cell-based, murine; details: 10 μM, 30 mins at 37° C.
Experimental: First, we prepared BL660-Me, a methyl ester derivative of BL660 as shown in FIG. 2a for comparison to the benzyl ester (4) of FIG. 1a. Next, we cultured 4T1 murine breast cancer cells, stably expressing the luciferase enzyme (4T1-Luc). The cells were then treated with a DMSO (dimethyl sulfoxide) vehicle control, BL660-Me or Compound (4) (FIG. 3a and FIG. 10a, b, c respectively?). Imaging was performed using the IVIS In Vivo Imaging System.
4T1-Luc cell was cultured in phenol red-free RPMI 1640 (ATCC) with 10% fetal bovine serum (FBS, Sigma Aldrich), and 1% penicillin/streptomycin (Corning).
Evaluation of BL660-Me and 4 in 4T1-Luc Cells. 4T1-Luc cells (180K) were seeded into 24-well plates and incubated for 24 hours. The cells were ˜85% confluent. The media was removed and replaced with serum-free RPMI 1640. An initial background scan was recorded on an IVIS imaging system in open mode where no filters were applied. Cells were then treated with DMSO (2.5 μL, 0.5%), BL660-Me, or compound 4 in DMSO (10 μM final concentration). After 30 minutes incubation at 37° C., bioluminescence was collected. ROIs were drawn around each well. The total luminescence count for each well for a given condition was averaged. The signal intensity was quantified using the Living Image Analysis Software.

porcine liver esterase = experiment: Esterase reactivity: treatment with porcine liver esterase, BL readout; format: in vitro ADME; details: porcine liver esterase 0.1 units/mL; versus Compound (1)
Source text: The enzymatic rates, reported as total luminescence counts per minute, in descending order are: Compound (1) (31.0±6.8×10^2), (3) (9.5±1.2×10^2), and (2) (0.6±0.1×10^2) (FIG. 1c and FIG. 9). The greater stability imparted by the aromatic ring is not surprising since esterase reactivity can be readily attenuated with bulkier substituents.

[5] = Hydrolytic stability of Compound (4) in Britton-Robinson buffer at pH 5, 7.4 and 9; format: physicochemical; details: 10 μM
Experimental: as §1
Compound (4) (10 μM final concentration with 1% DMSO) was first incubated in Britton-Robinson buffer (pH 5, 7.4 and 9) at 37° C. for 2, 3 and 4 hrs. Then the pH's were adjusted to 7.4. Luminescence was measured by blocking excitation light and measuring emissions with 660 nm gating. Total volume of the reaction mixture was maintained at 100 μL. To the 50 μL of this reaction mixture was ATP-MgSO4 (45 μL, prepared by mixing 17.78 mM ATP-Mg and 35.56 mM MgSO4 in 1:1 ratio in PBS buffer) and the reaction was initiated with Luciferase (5 μL, 0.25 mg/mL in PBS containing 10% glycerol).

[6] = Hydrolytic stability of BL660 esters in PBS, luciferase BL readout; format: physicochemical; details: PBS pH 7.4, 37° C.; versus Compound (1)
Experimental: We began our analysis of stability by incubating BL660 esters of Compound (1), Compound (2), and Compound (3) at 37° C. in PBS (phosphate-buffered saline) (pH 7.4). After 1, 6, and 12 hours, luciferase was added (10mU, 37° C., pH 7.4) to initiate BL production. The rate of hydrolysis, reported as total luminescence counts per hour, indicates hydrolysis in descending order is: Compound (1) (13.9±1.4×10^3); Compound (2) (3.3±0.6×10^3), and Compound (3) (1.0±0.1×10^3) (FIG. 1b, wherein the esters are indicated on the horizontal axis) and FIG. 8 (wherein the respective timeline plots are identified beneath the horizontal axis as (1), (2), etc.). Luminescent counts were recorded using an IVIS In Vivo Imaging System. […] Without wishing to be bound by any theory, we speculate hydrolysis of (3) may involve an SN1 mechanism, thus favoring formation of a double benzylic carbocation.

[7] = 15 mins after retroorbital injection

SMILES: CCN(CC)c1ccc(C=CC=CC2=NC(C(=O)OC(c3ccc([N+](=O)[O-])cc3)C(C)C)CS2)cc1 (stereo not shown) [BL660-NTR]
- activation by analytes compared to the NTR positive control [1]: ≤ 10%
- cell viability (A549 cells [2]): No loss of cell viability
- BL signal in the tumors (in words) (A549-Luc2 tumors): strong BL signals were apparent in all tumors
- difference in total luminescent count, BL660-NTR versus Compound 4 (A549-Luc2 tumors; [7]): 5.2 fold
- total luminescent count in tumors after 15 mins (A549-Luc2 tumors; [7]): 16.6±2.5×10^3 total luminescent count
- difference in BL intensity, hypoxic versus normoxic (A549 cells [3]; 1% versus 20% oxygen): 4.5 fold
- total luminescent counts, hypoxic lysates (A549 cells [3]; A549 cells in 1% oxygen for 2 days, 10 μM probe 60 minutes): 5.0±0.1×10^5 total luminescent counts
- total luminescent counts, normoxic lysates (A549 cells [3]; A549 cells in 20% oxygen for 2 days, 10 μM probe 60 minutes): 1.1±0.03×10^5 total luminescent counts
- total luminescence signal, NTR absent (NTR; BL660-NTR 5 μM and luciferase without NTR): significantly attenuated
- total luminescence count, probe, NTR and luciferase all present (NTR; BL660-NTR 5 μM, NTR 0.1 units, luciferase 0.0125 mg/mL): notable increase in the total luminescence count

SMILES: CCN(CC)c1ccc(C=CC=CC2=NC(C(=O)OC(c3ccccc3)C(C)C)CS2)cc1 (stereo not shown) [Compound (4)]
- activation on exposure to ester-cleaving enzymes [4]: minimal activation
- total luminescence count (4T1-Luc cells): 3.1±1.2×10^3 total luminescence count
- esterase stability relative to the parent benzyl ester (porcine liver esterase): about 68 fold
- BL signal in the tumors (in words) (A549-Luc2 tumors): barely discernable from background
- total luminescent count in tumors after 15 mins (A549-Luc2 tumors; [7]): 4.0±0.7×10^3 total luminescent count
- rate of hydrolysis at pH 5.0 ([5]; Britton-Robinson buffer pH 5.0, 37° C., 2, 3 and 4 hrs): 25.7±9.6×10^2 total luminescence counts per hour
- rate of hydrolysis at pH 7.4 ([5]; Britton-Robinson buffer pH 7.4, 37° C., 2, 3 and 4 hrs): 8.6±1.3×10^2 total luminescence counts per hour
- rate of hydrolysis at pH 9.0 ([5]; Britton-Robinson buffer pH 9.0, 37° C., 2, 3 and 4 hrs): 52.8±20.7×10^2 total luminescence counts per hour
- resistance to hydrolysis relative to the parent benzyl ester [6]: about 140 fold
